These results are taken from patent publication US20260345553A1, “COMPOSITION FOR TREATING CANCER COMPRISING HISTONE DEACETYLASE INHIBITOR, AND ANTICANCER ADJUVANT FOR CANCER IMMUNOTHERAPY” (SAMSUNG LIFE PUBLIC WELFARE FOUNDATION, priority 2022, published 2026).

Molecules are shown by their SMILES.

Series [1] deals with B7H3. Briefly: B7H3 expression by HDAC6 inhibitor, MSI versus MSS colorectal cancer cell lines. Type of series: cell-based. Conditions: IC50 and half-IC50; MSI DLD-1, HCT116, MC38; MSS SW620, HT29, CT26; FIG. 15. As for the experimental part: (§1) The IC50 values of the HDAC6 inhibitor (Nexturastat A) in three MSI colorectal cancer cell lines (DLD-1, HCT116, and MC38) and three MSS colorectal cancer cell lines (SW620, HT29, and CT26) were determined. The cells were then treated with the inhibitor at the IC50 and half-IC50 concentrations (concentration corresponding to ½ of the IC50 value), and the expression levels of the immune checkpoint proteins PD-L1 and B7H3 were measured.

Series [2] relates to PD-L1. Briefly: PD-L1 expression (RNA and protein) after HDAC inhibitor treatment in colorectal cell lines. Conditions: for PD-L1 expression in MSS compared with MSI colorectal cell lines: MSS compared with MSI colorectal cell lines (summary statement); for PD-L1 expression upon HDAC inhibitor treatment, MSS cell lines: SW620, LS513, and CT26, IC50 and ½ IC50, 48 hours, HDAC3 inhibitor compared with HDAC6 and HDAC8 (FIG. 2), HDAC8 inhibitor concentration-dependent (FIG. 6). Type of series: cell-based, human, mouse. Here is the method: (§2) The HDAC3 inhibitor experiment was conducted by harvesting cells 48 hours after the treatment at each inhibitor concentration and obtaining RNA and proteins. RGFP966 (S7229) purchased from SellekChem was used as an HDAC3 inhibitor. Specifically, SW620, LS513, DLD-1, CT26, and MC38 were individually cultured, and the experiments were conducted using the IC50 and ½ IC50 concentration on the basis of the previously determined IC50 concentration. RNA and protein samples were collected 48 hours after RGFP966 treatment. The RNA samples were isolated using the TRIzol, isopropanol, and chloroform, and the protein samples were collected by lysis with a lysis buffer (Roche, 4719956001). RNA was synthesized into cDNA using a cDNA synthesis kit (Bioneer, K-2044-B), and real-time PCR was performed using a method according to SYBR (Applied Biosystems, 4367659). Proteins were quantified using the Bradford assay (Bio-Rad, 50000006), and subjected to loading, transfer, blocking (3% skim milk; BD, 232100), primary antibody (24 h, 4 °C), and secondary antibody sequentially, thereby developing PD-L1.
The HDAC6 inhibitor experiment was conducted by the same method as in the HDAC3 inhibitor experiment of Experimental Example 3, and Nexturastat A HDAC6 selective inhibitor purchased from SellekChem was used as an HDAC6 inhibitor.
The HDAC8 inhibitor experiment was conducted by the same method as in the HDAC3 inhibitor experiment of Experimental Example 3, and PCI-34051 HDAC8 selective inhibitor purchased from SellekChem was used as an HDAC8 inhibitor.
The HDAC6 and HDAC8 inhibitor experiment was conducted by harvesting cells 48 hours after the treatment and then obtaining RNA and proteins.

The subject of series [3] is PD-L1. Briefly: PD-L1 expression by HDAC6 inhibitor, MSI versus MSS colorectal cancer cell lines. In kind it is cell-based. Conditions: IC50 and half-IC50; MSI DLD-1, HCT116, MC38; MSS SW620, HT29, CT26; FIG. 15. As for the experimental part:
as §1

Series [4] deals with CT26 tumor. Briefly: CD8 T cell-dependent CT26 tumor growth suppression with anti-CD8a pre-treatment. Type of series: in vivo, BALB/C mice. Conditions: concluded from anti-CD8a blocking. As for the experimental part:
To examine the hypothesis that an HDAC6 inhibitor suppresses CT26 tumor growth in a CD8 T cell-dependent manner, an experiment on the combination with anti-CD8a antibody was further conducted by pre-treatment with anti-CD8a antibody, which binds to CD8 T cells. The experiment was conducted by intraperitoneally administering an anti-CD8a antibody to animals from 3 days before tumor cell injection at 3-day intervals to inhibit CD8 T cells and administering an HDAC6 inhibitor and an anti-PD-L1 antibody.
Specifically, the experiment was conducted on a total of four groups: a control group, an anti-CD8a group, an HDAC6i (Next A)+anti-PD-L1 group, and an HDAC6i (Next A)+anti-PD-L1+anti-CD8a group. CT26 cells (1×10^6) for a cell line, Nexturastat A (SellekChem) as HDAC6i (HDAC6 inhibitor), #BE0101 (Bioxcell) as an anti-PD-L1 antibody, and #BE017 (Bioxcell) as an anti-CD8a antibody were used. BALB/C mice were used. In addition, 6 mice for the control group, 6 mice for the anti-CD8a group, 6 mice for the HDAC6i (Next A)+anti-PD-L1 group, and 8 mice for the HDAC6i (Next A)+anti-PD-L1+anti-CD8a group were used. […]

Series [5] can be described thus: Body weight of mice, HDAC6 inhibitor animal experiment. In kind it is in vivo, BALB/C mice. Conditions: HDAC6i 20 mpk i.p. daily; FIG. 9D. Here is the method:
The animal experiment using an HDAC6 inhibitor was conducted using a total of three groups, a control group (control), an HDAC6i (Next A) group, and an HDAC6i (Next A)+anti-PD-L1 group. Nexturastat A (SellekChem) was used as HDAC6i (HDAC6 inhibitor), and #BE0101 (Bioxcell) was used as an anti-PD-L1 antibody. CT26 (1×10^6) cells and BALB/C mice were used. Three mice for the control group, three mice for the HDAC6i group, and four mice for the HDAC6i+anti-PD-L1 group were used.
• HDAC6i group: HDAC6i 20 mpk (mg/kg) intraperitoneally injected daily • HDAC6i+anti-PD-L1 group: HDAC6i 20 mpk intraperitoneally injected every day and anti-PD-L1 antibody 10 mpk intraperitoneally injected three times per week.

The test system of series [6] is PD-L1. Briefly: PD-L1 expression after HDAC3 inhibitor treatment in mouse cells. In kind it is cell-based. Conditions: IC50 and ½ IC50, 48 hours, FIG. 2. Here is the method:
as §2

For `CCCCN(Cc1ccc(C(=O)NO)cc1)C(=O)Nc1ccccc1` [Nexturastat A], in series [1], the “B7H3 expression in MSS compared with MSI cell line” value is on record as “distinct increase tendencies”. In addition, the “PD-L1 expression at the RNA and protein levels upon HDAC6 inhibitor treatment” value in series [2] (MSS cell lines SW620, LS513, HT29, and CT26, depending on the concentration, 48 hours, FIG. 4) was “increase in PD-L1 expression at the RNA and protein levels”. Besides, the “PD-L1 expression in MSS compared with MSI colorectal cell lines” value in series [2] is recorded as “further up-regulated”. For the same molecule, the “PD-L1 expression in MSS compared with MSI cell line” value in series [3] is reported as “distinct increase tendencies”. Further, the “CD8 T cell dependence of CT26 tumor growth suppression” value in series [4] is recorded as “suppressed CT26 tumor growth in a CD8 T cell-dependent manner”. In series [5], the “body weight of the animals” value is “not reduced”.

Regarding `COc1ccc(Cn2ccc3ccc(C(=O)NO)cc32)cc1` [PCI-34051], in series [2], the “PD-L1 expression in MSS compared with MSI colorectal cell lines” value is “further up-regulated”; the “PD-L1 expression upon HDAC inhibitor treatment, MSS cell lines” value is “increase in PD-L1 expression at the RNA and protein levels”.

Take `Nc1cc(F)ccc1NC(=O)/C=C/c1cnn(C/C=C/c2ccccc2)c1` [RGFP966]: the “PD-L1 expression upon HDAC3 inhibitor treatment, mouse cells” value in series [6] is “decrease tendency”. Further, the “PD-L1 expression upon HDAC inhibitor treatment, MSS cell lines” value in series [2] was “small increases”.
